Measurements published in PubChem BioAssay AID602462 (NMMLSC, 2012).
Calls of active or inactive are those of the source.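 Rule for the calls: active = compounds passing through the artificial lipid membrane faster than 100 units at the neutral pH 7.4; inactive = the rest.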

Tested on: PAMPA double-sink, GIT-0 lipid, UV read-out
Experiment: passive membrane permeability of hits, PAMPA, late-stage follow-up, ADME assay for GPR30 and estrogen receptor ligands, biophysical, double-sink PAMPA, aqueous buffer, pH 5.0/6.2/7.4 (AID 602462)
Settings: stronger effect = higher value; for permeability Pe pH 5.0: measured here: permeability at pH 5.0; for permeability Pe pH 6.2: measured here: permeability at pH 6.2

SMILES | permeability Pe pH 7.4 | permeability Pe pH 5.0 | permeability Pe pH 6.2
COc1cc([N+](=O)[O-])cc2c1NC(C1CC=CCC1)C1CC=CC21 (stereo unspecified) | 117 10^-6 cm/s | 44 10^-6 cm/s | 120 10^-6 cm/s
CC(=O)c1ccc2c(c1)[C@@H]1C=CC[C@@H]1[C@H](c1cc3c(cc1Br)OCO3)N2 | 0 10^-6 cm/s (inactive) | 0 10^-6 cm/s | 0 10^-6 cm/s
